One substance from patent US20090191173A1, “Induction Of Neurogenesis And Stem Cell Therapy In Combination With Copolymer 1” (priority 2004, published 2009) can be followed below.

For test [1], the system named is neural progenitor cells (NPCs). The experiment in a line: Neuronal differentiation of GFP-expressing NPCs co-cultured with differently activated microglia. The format is cell-based, mouse. The note with it: absence of microglia, insulin 0.02 mg/ml. As to the method:
(iii) Neural progenitor cell (NPC) culture. Coronal sections (2 mm thick) of tissue containing the subventricular zone of the lateral ventricle were obtained from the brains of adult C57B16/J mice. […] After centrifugation at 110×g for 15 min at room temperature, the tissue was mechanically dissociated by pipette trituration. […] Cell proliferation rates and cell survival in vitro were determined by staining with 5-bromo-2′-deoxyuridine (BrdU, 2.5 μM; Sigma-Aldrich, St. Louis). For quantification of live and dead cells, live cultures were stained with 1 μg/ml propidium iodide (Molecular Probes, Invitrogen, Carlsbad, Calif.) and 1 μg/ml Hoechst 33342 (Sigma-Aldrich, St. Louis), and cells were counted using Image-Pro (Media Cybernetics, Silver Spring, Md.), as described (Hsieh et al., 2004) (vi) Immunocytochemistry. […]

Test [2] deals with neural progenitor cells (NPCs). The experiment in a line: Oligodendrocyte differentiation (NG2, RIP, GalC) of NPCs co-cultured with activated microglia. In kind it is cell-based, mouse. To be noted: 5 days, presence of insulin. As to the method: (iii) Neural progenitor cell (NPC) culture. Coronal sections (2 mm thick) of tissue containing the subventricular zone of the lateral ventricle were obtained from the brains of adult C57B16/J mice. The tissue was minced and then incubated for digestion at 37° C., 5% CO2 for 45 min in Earle's balanced salt solution containing 0.94 mg/ml papain (Worthington, Lakewood, N.J.) and 0.18 mg/ml of L-cysteine and EDTA. After centrifugation at 110×g for 15 min at room temperature, the tissue was mechanically dissociated by pipette trituration. Cells obtained from single-cell suspensions were plated (3500 cells/cm^2) in 75-cm^2 Falcon tissue-culture flasks (BD Biosciences, Franklin Lakes, N.J.), in NPC-culturing medium [Dulbecco's modified Eagles's medium (DMEM)/F12 medium (Gibco/Invitrogen, Carlsbad, Calif.) containing 2 mM L-glutamine, 0.6% glucose, 9.6 μg/ml putrescine, 6.3 ng/ml progesterone, 5.2 ng/ml sodium selenite, 0.02 mg/ml insulin, 0.1 mg/ml transferrin, 2 μg/ml heparin (all from Sigma-Aldrich, Rehovot, Israel), fibroblast growth factor-2 (human recombinant, 20 ng/ml), and epidermal growth factor (human recombinant, 20 ng/ml; both from Peprotech, Rocky Hill, N.J.)]. Spheres were passaged every 4-6 days and replated as single cells. Green fluorescent protein (GFP)-expressing neural progenitor cells (NPCs) were obtained as previously described (Pluchino et al., 2003). […]

“insulin: insulin added to differentiation medium (0.02 mg/ml)”: the “numbers of GFP+/β-III-tubulin+ cells in NPC cultures” value in test [1] is given as “did not increase”. In addition, the “NG2+ cells” value in test [2] is listed as “did not affect the incidence of NG2^+ cells”.
